For one test, the target named is T1, ExoI (Escherichia coli, UniProt P04995).
T1 construct: His-tag (cleaved yes); host or cells: E. coli BL21 (DE3) pLysS
Put plainly: biochemical. The test is classed as binding, E. coli. Here is the method:
(§1) Triplicate measurements were performed using a Clariostar Plus Microplate Reader in 384-well plates for all fluorescence anisotropy (FA) experiments. The settings were 25 °C, excitation at 485 nm, emission at 510 nm, settling time of 0.2 s, and 200 flashes per well.
(§2) Competition fluorescence anisotropy experiments were carried out as follows: protein (0.5 μM either ExoI or RecO) was incubated with 50 nM F-wtSSB peptide and 0–500 μM unlabeled wtSSB (or a variant) peptide for 30 min at room temperature. For direct fluorescence anisotropy measurements, 16 µM ExoI and 7.5 µM RecO were used in the first well. After serial dilution, either 50 nM of F-mSSB or F-sSSB was added to the wells and then incubated for 30 min. Buffers used included 20 mM Tris-HCl (pH 8.0), 100 mM NaCl, 1 mM MgCl2, 1 mM 2-mercaptoethanol, 10% (v/v) glycerol, for ExoI and 20 mM Tris-HCl (pH 8.0), 200 mM NaCl, 1 mM 2-mercaptoethanol, 10% (v/v) glycerol, and 0.01% Triton-X 100 for RecO [37].
(§3) Fluorescence anisotropy values were normalized and are shown as bound fractions (BF, %). BF=r−rmin/λ(rmax−r)+r−rmin, I=2∗PG+S, r=S−PG/I, where r: anisotropy, I: total intensity, P: perpendicular intensity, S: parallel intensity, G: an instrument factor set to 1, BF: ligand fraction bound, and λ=λbound/λunbound=1 .
(§4) Competitive fluorescence anisotropy was analyzed in Origin Pro 9.5, and IC50 values were determined using the Logistic Nonlinear fit function and are shown as plots for each mutated position for each protein in Figures S4 and S6. EC50 values from direct fluorescence anisotropy titrations were plotted in Origin 9.5. Values were determined using the Logistics Nonlinear fit function.

Another test deals with T2, RecO (Escherichia coli, UniProt P0A7H3).
T2 construct: His-tag (TEV site) (N, cleaved yes); made in house; host or cells: E. coli Rosetta cells
T2 sequence (P0A7H3 whole entry): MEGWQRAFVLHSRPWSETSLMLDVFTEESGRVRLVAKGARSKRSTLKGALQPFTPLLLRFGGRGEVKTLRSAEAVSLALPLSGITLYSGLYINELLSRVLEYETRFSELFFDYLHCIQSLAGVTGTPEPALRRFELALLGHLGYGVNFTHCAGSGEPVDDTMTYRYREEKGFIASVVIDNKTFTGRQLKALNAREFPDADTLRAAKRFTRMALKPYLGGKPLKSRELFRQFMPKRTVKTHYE
Kind of test: biochemical. Type of test: binding. Particulars: 0.5 μM RecO, 50 nM F-wtSSB tracer, 0–500 μM unlabeled peptide, 30 min room temperature; 20 mM Tris-HCl pH 8.0, 200 mM NaCl, 10% glycerol, 0.01% Triton-X 100; 25 °C; triplicate; read-out: IC50 on RecO, competitive fluorescence anisotropy. As for the experimental part: as §1, §2, §3, §4
(Polarisation of emitted light reports the rotation of a fluorescent probe.)

Where a SMILES comes first, the peptide text is derived from it. Where no end group is shown, it is not given here. [ ]: non-standard residue; d: D form. Phe(4-Cl) = N[C@@H](Cc1ccc(Cl)cc1)C(=O)O; NMeF = CN[C@@H](Cc1ccccc1)C(=O)O; Tic = O=C(O)[C@@H]1Cc2ccccc2CN1; 2Thi = N[C@@H](Cc1cccs1)C(=O)O; NMeD = CN[C@@H](CC(=O)O)C(=O)O; β3hD = NC(CC(=O)O)CC(=O)O

T1 sequence (P04995 whole entry): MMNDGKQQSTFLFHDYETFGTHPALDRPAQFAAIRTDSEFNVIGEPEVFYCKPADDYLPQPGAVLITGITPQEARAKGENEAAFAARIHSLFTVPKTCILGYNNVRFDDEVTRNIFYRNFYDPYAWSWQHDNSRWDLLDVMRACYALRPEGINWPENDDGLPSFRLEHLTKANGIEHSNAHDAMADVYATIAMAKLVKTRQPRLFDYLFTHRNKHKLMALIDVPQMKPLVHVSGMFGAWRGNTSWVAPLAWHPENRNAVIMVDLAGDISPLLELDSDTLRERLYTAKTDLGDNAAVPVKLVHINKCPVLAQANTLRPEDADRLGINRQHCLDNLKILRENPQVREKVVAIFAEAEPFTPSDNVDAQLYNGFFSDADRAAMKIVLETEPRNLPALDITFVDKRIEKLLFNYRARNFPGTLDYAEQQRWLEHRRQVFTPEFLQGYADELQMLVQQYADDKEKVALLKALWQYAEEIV

The IC50 is the concentration that gives 50% inhibition. With `CC[C@H](C)[C@H](NC(=O)[C@H](CC(=O)O)NC(=O)[C@H](CC(=O)O)NC(=O)[C@H](CC(=O)O)NC(=O)[C@H](Cc1ccccc1)NC(=O)[C@H](CC(=O)O)NC(C)=O)C(=O)N1CCC[C@H]1C(=O)N[C@@H](Cc1ccc(Cl)cc1)C(=O)O` [4-Cl-Phe8] (Ac-DFDDDIP[Phe(4-Cl)]-OH), the IC50 at ExoI amounted to 1.41 ± 0.18 µM; on RecO, 3.62 ± 0.84 µM. `CC[C@@H](C)[C@@H](NC(=O)[C@H](CC(=O)O)NC(=O)[C@H](CC(=O)O)NC(=O)[C@H](CC(=O)O)NC(=O)[C@H](Cc1ccccc1)NC(=O)[C@H](CC(=O)O)NC(C)=O)C(=O)N1CCC[C@H]1C(=O)N[C@@H](Cc1ccccc1)C(=O)O` [D-Ile6] (Ac-DFDDD[dI]PF-OH) displayed an IC50 against ExoI of 56 ± 18.4 µM. Consider `CC[C@H](C)[C@H](NC(=O)[C@H](CC(=O)O)NC(=O)[C@H](CC(=O)O)NC(=O)[C@H](CC(=O)O)NC(=O)[C@H](Cc1ccccc1)N(C)C(=O)[C@H](CC(=O)O)NC(C)=O)C(=O)N1CCC[C@H]1C(=O)N[C@@H](Cc1ccccc1)C(=O)O` [NM-Phe2] (Ac-D[NMeF]DDDIPF-OH), for which the IC50 against ExoI is 5.37 ± 0.53 µM; on RecO, 3.33 ± 0.35 µM.

For Ac-DFEDDIPF [Glu3], the IC50 at ExoI came out at 4.03 ± 0.24 µM; at RecO, 5.81 ± 1.65 µM. For `CC[C@H](C)[C@H](NC(=O)[C@H](CC(=O)O)NC(=O)[C@H](CC(=O)O)NC(=O)[C@H](CC(=O)O)NC(=O)[C@H](Cc1ccccc1)NC(=O)[C@H](CC(=O)O)NC(C)=O)C(=O)N1CCC[C@@H]1C(=O)N[C@@H](Cc1ccccc1)C(=O)O` [D-Pro7] (Ac-DFDDDI[dP]F-OH) the same measures were 61.5 ± 16.2 µM and 11.6 ± 10.9 µM. The corresponding values for `CC[C@H](C)[C@H](NC(=O)[C@H](CC(=O)O)NC(=O)[C@H](CC(=O)O)NC(=O)[C@H](CC(=O)O)NC(=O)[C@H](Cc1cccs1)NC(=O)[C@H](CC(=O)O)NC(C)=O)C(=O)N1CCC[C@H]1C(=O)N[C@@H](Cc1ccccc1)C(=O)O` [Thi2] (Ac-D[2Thi]DDDIPF-OH) are 4.22 ± 0.81 µM and 5.27 ± 0.28 µM. The corresponding values for Ac-DFDEDIPF [Glu4] are 3.58 ± 0.11 µM and 5.68 ± 0.59 µM. Take `CC[C@H](C)[C@H](NC(=O)[C@H](CC(=O)O)N(C)C(=O)[C@H](CC(=O)O)NC(=O)[C@H](CC(=O)O)NC(=O)[C@H](Cc1ccccc1)NC(=O)[C@H](CC(=O)O)NC(C)=O)C(=O)N1CCC[C@H]1C(=O)N[C@@H](Cc1ccccc1)C(=O)O` [NM-Asp5] (Ac-DFDD[NMeD]IPF-OH): the IC50 on ExoI amounted to 9.3 ± 0.66 µM; at RecO, 9.33 ± 4.3 µM. For `CC[C@H](C)[C@H](NC(=O)[C@H](CC(=O)O)NC(=O)C[C@H](CC(=O)O)NC(=O)[C@H](CC(=O)O)NC(=O)[C@H](Cc1ccccc1)NC(=O)[C@H](CC(=O)O)NC(C)=O)C(=O)N1CCC[C@H]1C(=O)N[C@@H](Cc1ccccc1)C(=O)O` [β3-Asp4] (Ac-DFD[β3hD]DIPF-OH) the same measures were 1.54 ± 0.13 µM and 19.6 ± 2.78 µM. For the molecule `CC[C@H](C)[C@H](NC(=O)[C@H](CC(=O)O)NC(=O)[C@H](CC(=O)O)NC(=O)[C@H](CC(=O)O)NC(=O)[C@H](Cc1ccccc1)NC(=O)[C@@H](CC(=O)O)NC(C)=O)C(=O)N1CCC[C@H]1C(=O)N[C@@H](Cc1ccccc1)C(=O)O` [D-Asp1] (Ac-[dD]FDDDIPF-OH), the IC50 at ExoI came out at 5.55 ± 0.19 µM; at RecO, 6.56 ± 1.4 µM. The corresponding values for `CC[C@H](C)[C@H](NC(=O)[C@H](CC(=O)O)NC(=O)[C@H](CC(=O)O)NC(=O)[C@H](CC(=O)O)NC(=O)[C@H](Cc1ccccc1)NC(=O)[C@H](CC(=O)O)NC(C)=O)C(=O)N1CCC[C@H]1C(=O)N1Cc2ccccc2C[C@H]1C(=O)O` [Tic8] (Ac-DFDDDIP[Tic]-OH) are 96.1 ± 83.8 µM and 141 ± 8.37 µM. Regarding Ac-DFDNDIPF [Asn4], the IC50 worked out at 6.02 ± 0.3 µM against ExoI and 15.7 ± 3.54 µM on RecO. In the case of Ac-DFDDNIPF [Asn5], the IC50 on ExoI was determined as 7.92 ± 0.62 µM; on RecO it was 16 ± 0.51 µM.

Values taken from paper PMC10143822, “Structural Adaptation of the Single-Stranded DNA-Binding Protein C-Terminal to DNA Metabolizing Partners Guides Inhibitor Design” (Pharmaceutics, 2023).
